Experimental findings from US9222928B2, “Biphenol ether compounds as markers for liquid hydrocarbons and other fuels and oils” (Dow Global Technologies LLC, priority 2011, dated 2015) are described below.

The melting point is the temperature, or range, at which the solid turns liquid. With `CCCCCCCCCCCCOc1ccccc1-c1ccccc1OCCCCCCCCCCCC` [BDD-BBPh, 2,2′-Bis(dodecyloxy)-1,1′-biphenyl], the melting point lay in the range of 33 to 35 °C.
